Experimental data from ChEMBL document CHEMBL4270492, “Free radicals and polyphenols: The redox chemistry of neurodegenerative diseases” (Eur J Med Chem, 2017).

Key:
[1] = Metal chelating activity assessed as equilibrium constant for formation of compound-Fe2+ complex formation
[2] = Metal chelating activity assessed as equilibrium constant for formation of compound-Cu2+ complex formation
[3] = Metal chelating activity assessed as equilibrium constant for formation of compound-Al3+ complex formation
[4] = Antioxidant activity assessed as singlet oxygen scavenging activity by measuring rate constant using VIS irradiation by ESR spin trapping method; format: functional
[5] = Antioxidant activity assessed as hydroxyl radical scavenging activity by measuring rate constant using UV irradiation by ESR spin trapping method; format: functional
[6] = Antioxidant activity assessed as superoxide anion free radical scavenging activity by measuring rate constant using UV irradiation by ESR spin trapping method; format: functional
[7] = Antioxidant activity assessed as alkoxyl radical scavenging activity by measuring rate constant by ESR spin trapping method; format: functional
[8] = Antioxidant activity assessed as DPPH free radical scavenging activity; format: functional
[9] = Electrochemical behaviour of the compound assessed as peak potential using disposable screen-printed carbon electrodes; format: physicochemical
[10] = Electrochemical behaviour of the compound assessed as peak potential; format: physicochemical
[11] = Antioxidant activity assessed as effect on linolenic acid autooxidation in presence of DLPC liposomes; format: functional
[12] = Antioxidant activity assessed as effect on linolenic acid autooxidation in presence of 0.5 M SDS based micellar systems; format: functional
[13] = Antioxidant activity assessed as effect on linolenic acid autooxidation in presence of 0.015 M SDS based micellar systems; format: functional

## O=C(O)CC(O)(CC(=O)O)C(=O)O
[1]
  K: 1600 M⁻¹
[2]
  K: 1000 to 100000 M⁻¹
[3]
  K: 1000 to 100000 M⁻¹

## CC(=O)N[C@@H](CS)C(=O)O
[4]
  K: 20.5 ×10⁷ /M/s
[5]
  K: 13.6 ×10⁹ /M/s
[6]
  K: 0.5 ×10³ /M/s
[7]
  K: 19.3 ×10⁵ /M/s

## O=C(O)c1ccc(O)c(O)c1 [PROTOCATECHUIC ACID]
[8]
  EC50: 0.0574 µmol
[9]
  Ep: 410 mV
[10]
  Ep: 188 to 317 mV

## Cc1c(C)c2c(c(C)c1O)CCC(C)(C(=O)O)O2 (centres undefined)
[11]
  K: 0.58 ×10⁴ /M/s
[4]
  K: 6.22 ×10⁷ /M/s
[5]
  K: 24.8 ×10⁹ /M/s
[12]
  K: 110000 M⁻¹ s⁻¹
[6]
  K: 2.1 ×10³ /M/s
[7]
  K: 48.3 ×10⁵ /M/s
[13]
  K: 1 ×10⁴ /M/s

## O=c1c(-c2ccc(O)cc2)coc2cc(O)cc(O)c12
[4]
  K: 19.1 ×10⁷ /M/s
[5]
  K: 11.8 ×10⁹ /M/s
[6]
  K: 2.75 ×10³ /M/s
[7]
  K: 20.7 ×10⁵ /M/s

## O=C(O)/C=C/c1cc(O)c(O)c(O)c1
[10]
  Ep: 384 mV

## O=C(O)/C=C/c1ccc(O)c(O)c1 [CAFFEIC ACID]
[8]
  EC50: 0.0478 µmol
[4]
  K: 54.7 ×10⁷ /M/s
[9]
  Ep: 450 mV
[5]
  K: 8.06 ×10⁹ /M/s
[10]
  Ep: 183 mV
[6]
  K: 10.6 ×10³ /M/s
[7]
  K: 75.9 ×10⁵ /M/s

## COc1cc(C(=O)O)cc(OC)c1O [SYRINGIC ACID]
[8]
  EC50: 0.0427 µmol
[9]
  Ep: 490 mV

## O=C(O)/C=C/c1ccccc1O [O-COUMARIC ACID]
[8]
  EC50: 130.05 µmol
[9]
  Ep: 750 mV

## Cc1cc(C(C)(C)C)c(O)c(C(C)(C)C)c1
[11]
  K: 0.37 ×10⁴ /M/s
[12]
  K: 1.1 ×10⁴ /M/s
[13]
  K: 3.4 ×10⁴ /M/s

## O=C(O)/C=C/c1cccc(O)c1
[8]
  EC50: > 300 µmol
[9]
  Ep: 780 mV

## COc1cc(C(C)(C)C)c(O)c(C(C)(C)C)c1
[11]
  K: 2.75 ×10⁴ /M/s
[12]
  K: 1 ×10⁴ /M/s
[13]
  K: 2.5 ×10⁴ /M/s

## COc1cc(/C=C/C(=O)O)ccc1O [FERULATE]
[8]
  EC50: 0.0927 µmol
[9]
  Ep: 447 mV
[10]
  Ep: 335 mV

## O=C(O)/C=C/c1ccc(O)cc1 [COUMARIC ACID]
[8]
  EC50: 66.29 µmol
[9]
  Ep: 670 mV
[10]
  Ep: 736 mV

## O=C(O)c1cc(O)ccc1O [GENTISIC ACID]
[8]
  EC50: 0.0292 µmol

## C[C@@H]1O[C@@H](OC[C@H]2O[C@@H](Oc3c(-c4ccc(O)c(O)c4)oc4cc(O)cc(O)c4c3=O)[C@H](O)[C@@H](O)[C@@H]2O)[C@H](O)[C@H](O)[C@H]1O
[4]
  K: 34.8 ×10⁷ /M/s
[5]
  K: 6.38 ×10⁹ /M/s
[6]
  K: 15.4 ×10³ /M/s
[7]
  K: 69 ×10⁵ /M/s

## O=C(O)c1ccc(O)cc1 [PARABEN]
[8]
  EC50: > 800 µmol
[9]
  Ep: 870 mV

## COc1cc(/C=C/C(=O)O)cc(OC)c1O [SINAPINATE]
[8]
  EC50: 0.0724 µmol
[10]
  Ep: 188 to 295 mV

## Oc1nc(O)c2nc(O)[nH]c2n1
[4]
  K: 2.3 ×10⁷ /M/s
[5]
  K: 9.52 ×10⁹ /M/s
[6]
  K: 10.6 ×10³ /M/s
[7]
  K: 106 ×10⁵ /M/s

## COc1cc(C(=O)O)ccc1O [VANILLIC ACID]
[8]
  EC50: 14.37 µmol
[9]
  Ep: 730 mV

## O=C(O)c1cc(O)c(O)c(O)c1 [GALLIC ACID]
[8]
  EC50: 0.0237 µmol
[10]
  Ep: 110 to 544 mV

## O=C(O)c1ccccc1O [SALICYLIC ACID]
[8]
  EC50: > 800 µmol
[9]
  Ep: 940 mV

## N[C@@H](CCC(=O)N[C@@H](CS)C(=O)NCC(=O)O)C(=O)O
[4]
  K: 93.9 ×10⁷ /M/s
[5]
  K: 16.4 ×10⁹ /M/s
[6]
  K: 1.11 ×10³ /M/s
[7]
  K: 27.6 ×10⁵ /M/s

## O=C(/C=C/c1ccc(O)c(O)c1)O[C@@H]1C[C@](O)(C(=O)O)C[C@@H](O)[C@H]1O
[4]
  K: 38.6 ×10⁷ /M/s
[5]
  K: 9.6 ×10⁹ /M/s
[6]
  K: 288 ×10³ /M/s
[7]
  K: 111 ×10⁵ /M/s
